Measured values taken from PMC3445516 (PLoS ONE, 2012).
Where two headings read alike, the source gives them in different places.

Tests used:
Test in all cases: Ambit kinase profiling, competition binding
CAMKIIδ = target: T1, CAMKIIδ (Homo sapiens, UniProt Q13557); details: for competition: CAMKIIδ, 10 µM
T1 construct: purchased Ambit Biosciences (KINOMEscan)
Description: (§1) Also included in the kinase profile are four isoforms of PKC (δ, ε, η, θ) and eight isoforms of CAMKs (CAMKIα, δ, γ; CAMKIIα, β, δ, γ; CAMK4).
(§2) The global kinase profiling experiment was performed by Ambit Biosciences.

CAMKIγ = target: T2, CAMKIγ (Homo sapiens, UniProt Q96NX5); details: for competition: CAMKIγ, 10 µM
T2 construct: purchased Ambit Biosciences (KINOMEscan)
T2 sequence (Q96NX5 whole entry): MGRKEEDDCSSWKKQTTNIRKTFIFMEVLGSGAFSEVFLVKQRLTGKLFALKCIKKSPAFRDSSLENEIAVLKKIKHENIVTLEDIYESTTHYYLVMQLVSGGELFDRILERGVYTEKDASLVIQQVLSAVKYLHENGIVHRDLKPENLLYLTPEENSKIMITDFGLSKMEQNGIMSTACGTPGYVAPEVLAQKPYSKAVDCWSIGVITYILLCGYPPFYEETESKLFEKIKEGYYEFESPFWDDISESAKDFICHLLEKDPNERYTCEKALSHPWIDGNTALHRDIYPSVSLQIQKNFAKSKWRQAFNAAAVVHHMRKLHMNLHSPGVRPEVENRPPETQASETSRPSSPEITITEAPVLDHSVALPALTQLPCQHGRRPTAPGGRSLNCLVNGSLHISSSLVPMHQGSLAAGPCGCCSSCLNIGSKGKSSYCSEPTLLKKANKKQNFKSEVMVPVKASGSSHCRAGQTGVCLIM
Description: as §1, §2

CSNK1G2 = target: T3, CSNK1G2 (Homo sapiens, UniProt P78368); details: for % Competition: 10 µM
T3 construct: purchased Ambit Biosciences (KINOMEscan)
T3 sequence (P78368 whole entry): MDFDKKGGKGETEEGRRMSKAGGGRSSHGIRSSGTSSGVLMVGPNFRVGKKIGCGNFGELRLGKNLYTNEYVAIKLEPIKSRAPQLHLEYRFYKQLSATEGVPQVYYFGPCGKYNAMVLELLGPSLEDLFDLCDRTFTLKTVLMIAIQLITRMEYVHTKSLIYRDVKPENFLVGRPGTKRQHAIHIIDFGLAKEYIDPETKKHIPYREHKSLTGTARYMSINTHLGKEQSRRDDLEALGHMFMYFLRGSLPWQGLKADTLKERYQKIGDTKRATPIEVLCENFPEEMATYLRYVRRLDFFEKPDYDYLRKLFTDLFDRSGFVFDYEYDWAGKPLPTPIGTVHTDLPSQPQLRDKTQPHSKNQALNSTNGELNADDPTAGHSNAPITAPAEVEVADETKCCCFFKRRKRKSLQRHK
Description: as §1, §2

EGFR(G719C) = target: T4, EGFR(G719C) (Homo sapiens, UniProt P00533, G719C); details: for % Competition: 10 µM
T4 construct: purchased Ambit Biosciences (KINOMEscan)
Description: as §1, §2

[1] = target: T5, EGFR(L747-S752del, P753S) (Homo sapiens, UniProt P00533, DEL747-752/P753S); details: for % Competition: 10 µM
T5 construct: purchased Ambit Biosciences (KINOMEscan)
Description: as §1, §2

PLK4 = target: T6, PLK4 (Homo sapiens, UniProt O00444)
T6 construct: purchased Ambit Biosciences (KINOMEscan)
T6 sequence (O00444 1-970): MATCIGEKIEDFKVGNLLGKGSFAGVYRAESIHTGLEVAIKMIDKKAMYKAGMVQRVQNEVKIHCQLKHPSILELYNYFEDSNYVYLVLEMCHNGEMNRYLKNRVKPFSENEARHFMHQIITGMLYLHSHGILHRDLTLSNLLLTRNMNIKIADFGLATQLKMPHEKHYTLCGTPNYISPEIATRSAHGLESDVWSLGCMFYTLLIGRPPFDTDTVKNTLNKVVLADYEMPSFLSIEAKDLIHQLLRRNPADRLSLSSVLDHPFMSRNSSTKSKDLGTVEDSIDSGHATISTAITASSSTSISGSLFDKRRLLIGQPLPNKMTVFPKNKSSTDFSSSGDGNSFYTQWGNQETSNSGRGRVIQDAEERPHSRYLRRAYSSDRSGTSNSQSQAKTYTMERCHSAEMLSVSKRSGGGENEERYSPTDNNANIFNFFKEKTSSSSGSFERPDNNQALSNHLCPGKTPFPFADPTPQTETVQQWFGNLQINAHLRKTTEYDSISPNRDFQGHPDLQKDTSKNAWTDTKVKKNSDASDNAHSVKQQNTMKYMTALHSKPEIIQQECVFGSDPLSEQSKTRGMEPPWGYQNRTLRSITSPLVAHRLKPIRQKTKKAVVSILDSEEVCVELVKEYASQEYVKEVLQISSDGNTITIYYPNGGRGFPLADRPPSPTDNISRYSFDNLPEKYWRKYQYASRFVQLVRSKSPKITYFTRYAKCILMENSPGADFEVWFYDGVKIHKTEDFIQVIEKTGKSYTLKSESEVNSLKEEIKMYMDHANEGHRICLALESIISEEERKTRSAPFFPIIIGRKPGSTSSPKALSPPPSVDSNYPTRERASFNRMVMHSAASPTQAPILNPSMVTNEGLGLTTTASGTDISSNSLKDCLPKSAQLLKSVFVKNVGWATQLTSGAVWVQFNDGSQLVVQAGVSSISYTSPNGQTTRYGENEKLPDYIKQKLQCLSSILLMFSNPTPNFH
Description: as §1, §2

RIPK2 = target: T7, RIPK2 (Homo sapiens, UniProt O43353)
T7 construct: purchased Ambit Biosciences (KINOMEscan)
T7 sequence (O43353 whole entry): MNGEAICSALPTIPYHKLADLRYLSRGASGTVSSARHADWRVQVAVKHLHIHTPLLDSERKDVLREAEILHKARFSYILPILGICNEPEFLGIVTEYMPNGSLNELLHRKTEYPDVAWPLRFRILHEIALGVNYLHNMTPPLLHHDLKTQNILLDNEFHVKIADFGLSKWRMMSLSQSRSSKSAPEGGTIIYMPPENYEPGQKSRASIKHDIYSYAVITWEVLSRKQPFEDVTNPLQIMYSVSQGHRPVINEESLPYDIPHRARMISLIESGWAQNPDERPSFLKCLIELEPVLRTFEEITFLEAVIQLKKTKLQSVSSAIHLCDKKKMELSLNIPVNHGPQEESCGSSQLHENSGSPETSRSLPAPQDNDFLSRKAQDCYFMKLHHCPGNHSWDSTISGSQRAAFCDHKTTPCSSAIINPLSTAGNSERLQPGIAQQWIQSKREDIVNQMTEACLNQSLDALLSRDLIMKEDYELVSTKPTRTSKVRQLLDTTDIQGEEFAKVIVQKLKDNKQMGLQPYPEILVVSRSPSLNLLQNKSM
Description: as §1, §2

STK35 = target: T8, STK35 (Homo sapiens, UniProt Q8TDR2)
T8 construct: purchased Ambit Biosciences (KINOMEscan)
T8 sequence (Q8TDR2 whole entry): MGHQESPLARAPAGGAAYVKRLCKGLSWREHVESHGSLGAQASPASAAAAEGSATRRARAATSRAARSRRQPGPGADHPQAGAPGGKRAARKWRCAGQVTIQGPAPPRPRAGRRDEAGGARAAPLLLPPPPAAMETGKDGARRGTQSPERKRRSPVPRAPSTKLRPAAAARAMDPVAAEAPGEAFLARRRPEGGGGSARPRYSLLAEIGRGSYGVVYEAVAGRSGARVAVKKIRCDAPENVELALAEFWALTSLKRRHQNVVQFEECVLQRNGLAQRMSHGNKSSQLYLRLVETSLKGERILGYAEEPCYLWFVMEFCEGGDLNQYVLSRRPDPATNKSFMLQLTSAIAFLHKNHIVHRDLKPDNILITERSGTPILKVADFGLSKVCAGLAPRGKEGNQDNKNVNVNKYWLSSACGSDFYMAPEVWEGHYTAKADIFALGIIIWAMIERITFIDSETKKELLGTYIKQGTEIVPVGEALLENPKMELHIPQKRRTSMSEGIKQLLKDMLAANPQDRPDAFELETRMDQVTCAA
Description: as §1, §2

TGFBR2 = target: T9, TGFBR2 (Homo sapiens, UniProt P37173)
T9 construct: purchased Ambit Biosciences (KINOMEscan)
T9 sequence (P37173 23-567): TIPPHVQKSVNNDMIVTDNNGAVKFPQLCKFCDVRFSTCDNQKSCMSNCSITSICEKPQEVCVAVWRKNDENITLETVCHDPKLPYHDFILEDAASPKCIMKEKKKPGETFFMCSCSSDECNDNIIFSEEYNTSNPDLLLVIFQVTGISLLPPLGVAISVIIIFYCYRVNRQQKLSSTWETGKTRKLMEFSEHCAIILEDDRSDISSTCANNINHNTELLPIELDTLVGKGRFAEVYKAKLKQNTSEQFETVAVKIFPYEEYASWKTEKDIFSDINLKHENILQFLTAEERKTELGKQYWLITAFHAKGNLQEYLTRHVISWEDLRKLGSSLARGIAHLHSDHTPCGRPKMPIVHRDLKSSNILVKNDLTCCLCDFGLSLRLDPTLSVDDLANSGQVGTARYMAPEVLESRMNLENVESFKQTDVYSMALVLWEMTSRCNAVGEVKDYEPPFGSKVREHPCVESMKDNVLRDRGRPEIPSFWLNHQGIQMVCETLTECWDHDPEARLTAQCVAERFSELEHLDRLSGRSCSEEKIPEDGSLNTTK
Description: as §1, §2

TNNI3K = target: T10, TNNI3K (Homo sapiens, UniProt Q59H18)
T10 construct: purchased Ambit Biosciences (KINOMEscan)
T10 sequence (Q59H18 1-835): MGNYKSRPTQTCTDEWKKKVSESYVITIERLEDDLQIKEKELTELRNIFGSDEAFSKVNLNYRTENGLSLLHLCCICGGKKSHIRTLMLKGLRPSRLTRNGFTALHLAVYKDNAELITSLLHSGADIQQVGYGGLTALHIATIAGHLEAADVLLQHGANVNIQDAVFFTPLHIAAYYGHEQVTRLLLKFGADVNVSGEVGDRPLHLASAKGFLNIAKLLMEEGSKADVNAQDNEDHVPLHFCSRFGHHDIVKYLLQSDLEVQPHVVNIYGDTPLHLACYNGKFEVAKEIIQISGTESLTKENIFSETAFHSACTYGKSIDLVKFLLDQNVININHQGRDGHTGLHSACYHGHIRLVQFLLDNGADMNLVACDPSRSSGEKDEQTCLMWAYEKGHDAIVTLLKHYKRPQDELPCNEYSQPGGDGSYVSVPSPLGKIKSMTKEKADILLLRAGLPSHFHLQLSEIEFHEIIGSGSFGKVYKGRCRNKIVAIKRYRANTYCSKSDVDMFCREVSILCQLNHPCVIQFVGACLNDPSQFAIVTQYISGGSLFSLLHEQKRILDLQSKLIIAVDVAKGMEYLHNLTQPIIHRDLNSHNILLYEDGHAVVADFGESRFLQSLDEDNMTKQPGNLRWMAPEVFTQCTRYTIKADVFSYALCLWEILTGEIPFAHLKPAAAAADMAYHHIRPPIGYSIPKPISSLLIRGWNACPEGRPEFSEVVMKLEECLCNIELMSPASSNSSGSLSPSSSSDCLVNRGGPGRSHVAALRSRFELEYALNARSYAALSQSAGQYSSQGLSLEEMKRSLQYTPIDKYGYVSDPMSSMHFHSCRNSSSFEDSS
Description: as §1, §2

T1 sequence (Q13557 whole entry): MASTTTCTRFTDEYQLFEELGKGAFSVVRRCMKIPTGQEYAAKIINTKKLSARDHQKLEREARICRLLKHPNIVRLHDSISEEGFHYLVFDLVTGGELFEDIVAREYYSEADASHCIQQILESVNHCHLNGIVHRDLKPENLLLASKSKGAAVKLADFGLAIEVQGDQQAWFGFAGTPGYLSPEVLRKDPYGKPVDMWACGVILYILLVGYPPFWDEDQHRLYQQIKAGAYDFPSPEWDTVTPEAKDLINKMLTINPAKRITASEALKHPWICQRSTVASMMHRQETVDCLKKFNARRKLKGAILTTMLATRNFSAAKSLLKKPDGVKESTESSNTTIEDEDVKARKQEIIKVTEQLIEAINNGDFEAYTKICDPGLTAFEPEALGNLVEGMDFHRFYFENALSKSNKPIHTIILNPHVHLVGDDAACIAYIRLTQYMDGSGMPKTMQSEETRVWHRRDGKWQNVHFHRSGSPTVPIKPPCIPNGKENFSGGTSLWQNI

`Fc1ccc(-c2c(-c3ccncc3)[nH]c3nccnc23)cc1` [Compound 122] was tested, and the competition (CAMKIIδ) was under 50%, the competition (CAMKIγ) was under 50% and the “% Competition” value (CSNK1G2) was 82%. The “% Competition” value (EGFR(G719C)) was 99%, the “% Competition” value [1] was 95% and the inhibition at 10 µM (PLK4; PLK4, 10 µM, read-out: % Competition) was 98%. The inhibition at 10 µM (RIPK2; RIPK2, 10 µM, read-out: % Competition) was 97%, the inhibition at 10 µM (STK35; STK35, 10 µM, read-out: % Competition) was 79% and the inhibition at 10 µM (TGFBR2; TGFBR2, 10 µM, read-out: % Competition) was 98%. It also gave an inhibition at 10 µM (TNNI3K; TNNI3K, 10 µM, read-out: % Competition) of 67%.

`CC(O)CNc1cc(-c2[nH]c3cccnc3c2-c2ccc(F)cc2)ccn1` (stereo not drawn) [Compound 140] was tested, and the competition (CAMKIIδ) was under 50%, the competition (CAMKIγ) was under 50% and the “% Competition” value (CSNK1G2) was 89%. The “% Competition” value (EGFR(G719C)) was 87%, the “% Competition” value [1] was 84% and the inhibition at 10 µM (PLK4; read-out: % Competition) was under 50%. For the same molecule, the inhibition at 10 µM (RIPK2; read-out: % Competition) was 94%, the inhibition at 10 µM (STK35; read-out: % Competition) was under 50% and the inhibition at 10 µM (TGFBR2; read-out: % Competition) was under 50%. The inhibition at 10 µM (TNNI3K; read-out: % Competition) was under 50%.

In the case of `Fc1ccc(-c2c(-c3ccncc3)[nH]c3nccnc23)cc1` [RO1155697-000-005], the inhibition at 10 µM (CAMKIIδ; CAMK2D, compound concentration 10 uM, read-out: Percent Competition) is reported as under 50%, the inhibition at 10 µM (CAMKIγ; CAMK1G, compound concentration 10 uM, read-out: Percent Competition) is reported as under 50% and the “Percent Competition” value (CSNK1G2; compound concentration 10 uM) is reported as 82%. The “Percent Competition” value (EGFR(G719C); compound concentration 10 uM) was 99%, the “Percent Competition” value ([1]; compound concentration 10 uM) was 95% and the inhibition at 10 µM (PLK4; PLK4, compound concentration 10 uM, read-out: Percent Competition) was 98%. The inhibition at 10 µM (RIPK2; RIPK2, compound concentration 10 uM, read-out: Percent Competition) was 97%, the inhibition at 10 µM (STK35; STK35, compound concentration 10 uM, read-out: Percent Competition) was 79% and the inhibition at 10 µM (TGFBR2; TGFBR2, compound concentration 10 uM, read-out: Percent Competition) was 98%. For the same molecule, the inhibition at 10 µM (TNNI3K; TNNI3K, compound concentration 10 uM, read-out: Percent Competition) was 67%.
